From patent US20200056220A1, “GENERATION OF DATA FOR USE WITH ANTIMICROBIALS” (GeneFluidics, Inc., priority 2018, published 2020)
Like-named read-outs stand apart in the source and are kept apart here.

System: E. coli
Conditions: for average current signal of the four sensors, base susceptibility test: 0 minutes susceptibility culture time, sample diluted to 5×10^5 CFU/mL, −250 mV; for average current signal of the four sensors, base susceptibility test / current of the 60 minute test sample: 0.4 μg antibiotic in 100 μL Mueller-Hinton broth
Description: In an antimicrobial susceptibility testing phase, a local antibiogram can be used to identify antibiotics for treating the pathogen identified in Example 1. […] Susceptibility cultures can be started. […] A second susceptibility culture including imipenem can be generated by diluting a portion of the raw sample to 5×10^5 CFU/mL and distributing the result into a vial with a 0.4 μg of a lyophilized version of the imipenem and 100 μL of culture media (Mueller-Hinton broth).
The imipenem susceptibility test sample can be used to generate an imipenem test sample shortly after the imipenem susceptibility culture was started. The Proteus automated system can begin to prepare a test sample from the imipenem susceptibility test sample by transferring 30 μL of the imipenem susceptibility test sample to a microcentrifuge vial in the machine. Then, the Proteus automated system can add 12 μL of 1M NaOH to the 30 μL sample. This sample can be incubated at room temperature for 2 minutes. The Proteus system can then add 8 μL of 1M HCl. Ten microliters of the result can be placed on each of 4 sensors of the 16 available on the GeneFluidics, Inc. 16X EC chip. This chip can be incubated in the Proteus machine for 11 minutes at 43° C. After completion of this incubation, the chip can be washed and dried by Proteus. Ten microliters of 0.5 U/mL anti-fluorescein horseradish peroxidase (HRP) Fab fragments (Roche; diluted in 1.0% casein in 1 M phosphate-buffered saline, pH 7.4) can be injected into the sensor chambers and incubated for 2 minutes at 25° C. The final reagent addition can be 40 μL of 3,3′,5,5′-tetramethylbenzidine (TMB)-H2O2 solution (K-Blue Low Activity TMB Substrate; Neogen, Lexington Ky.) and incubated for 30 seconds to provide the imipenem test sample.
Then, the Proteus automated system can add 12 μL of 1M NaOH to the 30 μL sample. This sample can be incubated at room temperature for 2 minutes. The Proteus system can then add 8 μL of 1M HCl. Ten microliters of the result can be placed on each of 4 sensors of the 16 available on the GeneFluidics, Inc. 16X EC chip. This chip can be incubated in the Proteus machine for 11 minutes at 43° C. After completion of this incubation, the chip can be washed and dried by Proteus. Ten microliters of 0.5 U/mL anti-fluorescein horseradish peroxidase (HRP) Fab fragments (Roche; diluted in 1.0% casein in 1 M phosphate-buffered saline, pH 7.4) can be injected into the sensor chambers and incubated for 2 minutes at 25° C.
The test samples were tested for concentration using a test that served as the base susceptibility test or the zero susceptibility culture time test. For instance, a Helios potentiostat from GeneFluidics, Inc. was connected to the electrodes of the sensor chips and a potential of −250 mV was applied across the electrodes for one minute. During this time, the current generated by the electrochemical reaction was measured by the potentiostat. The average current measured in the final 10 seconds of the potentiostat reading constituted the final result of the assay.
The process that was used to prepare the test samples for the base susceptibility tests was to be used to generate test samples from each of the susceptibility cultures at 60 minutes, and 90 minutes. Each of the test samples were tested as described above.

[1] = 60 minutes susceptibility culture time

## C[C@@H](O)[C@H]1C(=O)N2C(C(=O)O)=C(SCCN=CN)C[C@H]12 [imipenem]
  average current signal of the four sensors, base susceptibility test: 30 nA
[1]
  increase over the current level from base susceptibility test: 500%
  current of the 60 minute test sample: 180 nA

## O=C(O)c1cn(C2CC2)c2cc(N3CCNCC3)c(F)cc2c1=O [ciprofloxacin]
  average current signal of the four sensors, base susceptibility test: 30 nA
0.4 μg antibiotic in 100 μL culture media, final report when culture was stopped
  reported result (resistant / susceptible to the concentration of antimicrobial in the culture): susceptible
[1]
  increase over the current level from base susceptibility test: 0%
  current of the 60 minute test sample: 30 nA
90 minutes susceptibility culture time
  increase over the current level from base susceptibility test: 0%
